Patent US20140221301A1, “COMBINATION TREATMENT FOR CANCER” (priority 2011, published 2014)

Legend:
Assay type in all cases: cell-based, human
[1] = tested on: M9-ENL1 cells; test: Chemical screen, MTS assay, M9-ENL1 cells; conditions: 10 μM, 48 hours
Description: To identify compounds active against leukemia stem cells, a library of drugs (n=312) with well-characterized pharmacokinetics and toxicology and a wide therapeutic window was compiled. This library was then screened to identify agents that reduced the viability of TEX and M9-ENL1 cells. TEX and M9-ENL1 cells were derived from lineage-depleted human cord blood cells (Lin-CB) transduced with TLS-ERG or MLL-ENL oncogenes, respectively, and, as shown previously, display properties of stem cells including hierarchal differentiation and marrow repopulation^14, 15. In this screen, TEX and M9-ENL1 cells were treated with aliquots of the compounds. After incubation, cell growth and viability was measured by the MTS assay. From this screen, tigecycline was identified.
TEX, and M9-ENL-1 cells were seeded into 96-well polystyrene tissue culture plates (Corning). […] 72 (TEX) and 48 (M9-ENL-1) hours after incubation, cell growth and viability was measured by MTS assay. […]
Cell growth and viability was assessed by the MTS assay (Promega, Madison, Wis.) according to the manufacturer's instructions. Apoptosis and cell death was measured by Annexin V-fluroscein isothiocyanate (FITC; Biovision Research Products, Mountain View, Calif.), propidium iodide staining and flow cytometry according to the manufacturer's instructions and as previously described^30. […]

[2] = tested on: Cox-1, Cox-2, Cox-4 mRNA; test: Quantitative RT-PCR of Cox mRNA; conditions: TEX and primary AML cells, 2.5 μM and 5 μM
Procedure: FIG. 4. […] (A) Cells from TEX, OCI-AML2 and two primary AML patients were treated with increasing concentrations (2.5 μM and 5 μM) of tigecycline for 36 and 48 hours of tigecycline. Total proteins were extracted and analyzed by western blotting for Cox-1, Cox-2, Cox-4, grp78, XIAP, actin and tubulin. (B) TEX and AML patient cells were treated with increasing concentrations (2.5 μM and 5 μM) of tigecycline. Cox-1, Cox-2, and Cox-4 mRNA expression relative 18S was determined by quantitative RT-PCR. Data is shown as mean±SD. (C) TEX cells were treated with increasing concentrations of tigecycline and chloramphenicol (CAP) for 72 hours. Complex I, II and IV enzyme activity relative to citrate synthase activity was determined as described in materials and methods. (D) Cells from TEX, primary AML patients, and normal donors were treated with increasing concentrations of tigecycline. Mitochondrial membrane potential (ΔΨ) was determined by staining cells with JC-1 dye, and flow cytometry analysis (Red/Green ratio). Reactive oxygen species generation (ROS) was determined by staining with h2-DCFDA and Dihydroethidium (DHE).

[3] = tested on: TEX cells and primary AML samples; test: Mitochondrial membrane potential, JC-1, leukemia cells; conditions: 5 μM, times preceding onset of cell death
Procedure: FIG. 4. Tigecycline decreases mitochondrial Cox-1 protein levels in TEX cells. (A) Cells from TEX, OCI-AML2 and two primary AML patients were treated with increasing concentrations (2.5 μM and 5 μM) of tigecycline for 36 and 48 hours of tigecycline. Total proteins were extracted and analyzed by western blotting for Cox-1, Cox-2, Cox-4, grp78, XIAP, actin and tubulin. (B) TEX and AML patient cells were treated with increasing concentrations (2.5 μM and 5 μM) of tigecycline. Cox-1, Cox-2, and Cox-4 mRNA expression relative 18S was determined by quantitative RT-PCR. Data is shown as mean±SD. […] Complex I, II and IV enzyme activity relative to citrate synthase activity was determined as described in materials and methods. […] Mitochondrial membrane potential (ΔΨ) was determined by staining cells with JC-1 dye, and flow cytometry analysis (Red/Green ratio). Reactive oxygen species generation (ROS) was determined by staining with h2-DCFDA and Dihydroethidium (DHE).
To measure mitochondrial membrane potential, cells were treated with tigecycline similarly as described above and then washed twice with PBS and incubated with 5 μM of 5,5′,6,6′-tetrachloro-1,1′,3,3′-tetraethyl benzimidazolylcarbocyanine iodide (JC-1, Sigma-Aldrich) for 20 minutes at 37° C. Each sample was then washed twice with 1 mL PBS and resuspended in 500 μL PBS prior to being read on a BD FACSCalibur. […]

[4] = tested on: primary AML patient samples; test: Cell viability by Annexin V staining, primary AML patient samples
Procedure: Cell growth and viability was assessed by the MTS assay (Promega, Madison, Wis.) according to the manufacturer's instructions. Apoptosis and cell death was measured by Annexin V-fluroscein isothiocyanate (FITC; Biovision Research Products, Mountain View, Calif.), propidium iodide staining and flow cytometry according to the manufacturer's instructions and as previously described^30.

SMILES: CN(C)c1cc(NC(=O)CNC(C)(C)C)c(O)c2c1C[C@H]1C[C@H]3[C@H](N(C)C)C(O)=C(C(N)=O)C(=O)[C@@]3(O)C(O)=C1C2=O [tigecycline]
- cell growth and viability in screen [1]: cell growth inhibitor
- mRNA expression of Cox-1, Cox-2 over Cox-4 [2]: preferential increased mRNA expression
- mitochondrial membrane potential [3]: decreased
- relation of induced cytotoxicity to mitochondrial mass ([4]; AML samples, 5 μM and 10 μM, 48 hours): correlates with increasing mitochondrial mass
- LD50 ([4]; more resistant group of patients, n=7, 48 hours): > 9 µM
- LD50 ([4]; sensitive subset of leukemia patients, n=13, 48 hours): 5 µM
